Holding throughout (format): biochemical
Conditions in all cases: 200 μg/ml Poly Glu-Tyr (4:1), ATP 1 uM, 90 min room temperature, luminescence

The target of test [1] is T1, Recombinant JAK1 (Amino acids 850-1154) (Homo sapiens, UniProt P23458).
T1 construct: Recombinant JAK1 (Amino acids 850-1154; NM_002227.2); made in house; host or cells: baculovirus expression system (Bac-to-Bac)
Put plainly: Kinase-Glo Luminescent Kinase Assay, recombinant JAK1. In short, it runs like this:
(§1)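 Baculovirus-expressed kinase domains were pre-incubated 5 min with compound (1% DMSO), then reacted 90 min at room temperature with 200 μg/ml poly Glu-Tyr (4:1) and 1 uM ATP in 50 mM HEPES pH 7.4, 5 mM MgCl2. Remaining ATP was read by Kinase-Glo luminescence. IC50 came from four-parameter logistic fits.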
(In Kinase-Glo more light means more ATP remaining.)

The target of test [2] is T2, Recombinant JAK3 (Amino acids 781-1124) (Homo sapiens, UniProt P52333).
T2 construct: JAK3 (Amino acids 781-1124; NM_000215.3); made in house; host or cells: baculovirus expression system (Bac-to-Bac)
Put plainly: Kinase-Glo Luminescent Kinase Assay, recombinant JAK3. Summed up: as §1

The target of test [3] is T3, Recombinant JAK2 (Amino acids 808-1132) (Homo sapiens, UniProt O60674).
T3 construct: JAK2 (Amino acids 808-1132; NM_004972.3); made in house; host or cells: baculovirus expression system (Bac-to-Bac)
Kind of test: Kinase-Glo Luminescent Kinase Assay, recombinant JAK2. In short, it runs like this: as §1

Drawing on patent US9115133B2, “Substituted fused tricyclic compounds, compositions and medicinal applications thereof” (Advinus Therapeutics Limited, priority 2011, dated 2015), this text covers IC50 for 22 molecules.

T2 sequence (P52333 781-1124): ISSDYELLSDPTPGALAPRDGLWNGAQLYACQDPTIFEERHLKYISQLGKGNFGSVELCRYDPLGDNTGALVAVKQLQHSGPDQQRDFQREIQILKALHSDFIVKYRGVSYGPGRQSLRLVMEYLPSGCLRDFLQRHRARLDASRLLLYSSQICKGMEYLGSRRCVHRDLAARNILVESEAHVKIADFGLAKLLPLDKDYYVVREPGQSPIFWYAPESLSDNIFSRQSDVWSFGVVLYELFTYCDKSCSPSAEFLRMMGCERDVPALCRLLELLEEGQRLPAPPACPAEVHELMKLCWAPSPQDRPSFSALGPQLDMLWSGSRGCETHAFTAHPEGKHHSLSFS
T1 sequence (P23458 850-1154): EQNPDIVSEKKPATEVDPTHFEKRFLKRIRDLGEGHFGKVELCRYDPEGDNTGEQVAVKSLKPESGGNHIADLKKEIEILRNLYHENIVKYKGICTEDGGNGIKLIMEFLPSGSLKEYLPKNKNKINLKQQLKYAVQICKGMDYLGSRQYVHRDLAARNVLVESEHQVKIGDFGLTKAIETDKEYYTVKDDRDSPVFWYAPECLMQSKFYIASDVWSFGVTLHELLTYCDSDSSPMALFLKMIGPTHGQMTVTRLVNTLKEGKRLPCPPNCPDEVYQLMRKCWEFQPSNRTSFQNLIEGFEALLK
T3 sequence (O60674 808-1132): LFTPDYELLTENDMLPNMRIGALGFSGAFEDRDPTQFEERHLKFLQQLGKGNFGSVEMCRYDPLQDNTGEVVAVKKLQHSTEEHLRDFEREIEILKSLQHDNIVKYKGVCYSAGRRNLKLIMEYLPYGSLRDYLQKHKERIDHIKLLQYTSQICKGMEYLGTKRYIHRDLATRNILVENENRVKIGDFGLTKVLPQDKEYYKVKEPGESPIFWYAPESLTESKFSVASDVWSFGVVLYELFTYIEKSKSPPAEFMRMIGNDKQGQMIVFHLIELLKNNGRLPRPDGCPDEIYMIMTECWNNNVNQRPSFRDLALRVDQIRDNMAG

Take `N#CCC(=O)N1CC[C@@H](c2ccnc3cnc4[nH]ccc4c23)C1` [Ex. 14B, (S)3-oxo-3-[3-(3H-pyrrolo[3,2-f][1,7]naphthyridin-9-yl)pyrrolidin-1-yl]propanenitrile]: the IC50 (usually the midpoint of a concentration-inhibition curve) in test [1] was 1 to 20 nM; in test [2], > 20 nM; in test [3], 1 to 20 nM.
In the case of `CC(C)NC(=O)C1CCCN(c2ccnc3cnc4[nH]ccc4c23)C1` (stereo not drawn) [Ex. 68, N-isopropyl-1-(3H-pyrrolo[3,2-f][1,7]naphthyridin-9-yl)piperidine-3-carboxamide], the IC50 in test [1], in test [2] and in test [3] was > 20 nM in each case.
With `O=C(CC(F)(F)F)N1CCC[C@H](c2ccnc3cnc4[nH]ccc4c23)C1` [Ex. 4A, (R)3,3,3-trifluoro-1-[3-(3H-pyrrolo[3,2-f][1,7]naphthyridin-9-yl)-1-piperidyl]propan-1-one], the IC50 in test [1], in test [2] and in test [3] was 1 to 20 nM each time.
On to `CC(C)C(=O)N1CCCC(c2ncnc3cnc4[nH]ccc4c23)C1` (stereo not drawn) [Ex. 22, 2-Methyl-1-[3-(3H-3,4,6,8-tetraazacyclopenta[a]naphthalen-9-yl)-piperidin-1-yl]-propan-1-one], for which the IC50 in test [1], in test [2] and in test [3] was > 20 nM each time.
For `N#CCC(=O)N1CC[C@H](c2ccnc3cnc4[nH]ccc4c23)C1` [Ex. 14A, (R)3-oxo-3-[3-(3H-pyrrolo[3,2-f][1,7]naphthyridin-9-yl)pyrrolidin-1-yl]propanenitrile], the IC50 in test [1], in test [2] and in test [3] was > 20 nM in each case.
For `N#CCS(=O)(=O)N1CCN(c2ccnc3cnc4[nH]ccc4c23)CC1` [Ex. 105, 2-[4-(3H-pyrrolo[3,2-f][1,7]naphthyridin-9-yl)piperazin-1-yl]sulfonylacetonitrile], the values for the IC50 in test [1], in test [2] and in test [3] were 1 to 20 nM, > 20 nM and > 20 nM, respectively.
In the case of `O=C(NC1CC1)C1CCN(c2ccnc3cnc4[nH]ccc4c23)C1` (stereo not drawn) [Ex. 85, N-cyclopropyl-1-(3H-pyrrolo[3,2-f][1,7]naphthyridin-9-yl)pyrrolidine-3-carboxamide], the IC50 in test [1], in test [2] and in test [3] was > 20 nM in each case.
Take `CN(C)C(=O)N1CCCC(c2ccnc3cnc4[nH]ccc4c23)C1` (stereo not drawn) [Ex. 47, N,N-dimethyl-3-(3H-pyrrolo[3,2-f][1,7]naphthyridin-9-yl)piperidine-1-carboxamide]: the IC50 in test [1], in test [2] and in test [3] was 1 to 20 nM each time.
Turning to `CC(C)/C(=N\C#N)N1CCC[C@@H](c2ccnc3cnc4[nH]ccc4c23)C1` [Ex. 43B, (S)(E)-[2-methyl-1-[3-(3H-pyrrolo[3,2-f][1,7]naphthyridin-9-yl)-1-piperidyl]propylidene]cyanamide], the IC50 in test [1], in test [2] and in test [3] was 1 to 20 nM throughout.
In the case of `O=C(CC(F)(F)F)N1CCC(c2ccnc3cnc4[nH]ccc4c23)C1` (stereo not drawn) [Ex. 15, 3,3,3-trifluoro-1-[3-(3H-pyrrolo[3,2-f][1,7]naphthyridin-9-yl)pyrrolidin-1-yl]propan-1-one], the values for the IC50 in test [1], in test [2] and in test [3] were 1 to 20 nM, > 20 nM and 1 to 20 nM, respectively.
Turning to `O=C(CC(F)(F)F)N1CCCC(c2ncnc3cnc4[nH]ccc4c23)C1` (stereo not drawn) [Ex. 24, 3,3,3-Trifluoro-1-[3-(3H-3,4,6,8-tetraazacyclopenta[a]naphthalen-9-yl)-piperidin-1-yl]-propan-1-one], the results for the IC50 in test [1], in test [2] and in test [3] were 1 to 20 nM, > 20 nM and 1 to 20 nM, respectively.
Consider `N#CCC(=O)N1CCC[C@H](c2ccnc3cnc4[nH]ccc4c23)C1` [Ex. 1A, (R)3-oxo-3-[3-(3H-pyrrolo[3,2-f][1,7]naphthyridin-9-yl)-1-piperidyl]propanenitrile], for which the IC50 in test [1], in test [2] and in test [3] was > 20 nM throughout.
For `N#CCC(=O)N1CCC[C@@H](c2ccnc3cnc4[nH]ccc4c23)C1` [Ex. 1B, (S)3-oxo-3-[3-(3H-pyrrolo[3,2-f][1,7]naphthyridin-9-yl)-1-piperidyl]propanenitrile], the IC50 in test [1] was 1 to 20 nM; in test [2], < 1 nM; in test [3] it was 1 to 20 nM.
Regarding `N#CCC(=O)N1CCCC(c2ncnc3cnc4[nH]ccc4c23)C1` (stereo not drawn) [Ex. 23, 3-Oxo-3-[3-(3H-3,4,6,8-tetraazacyclopenta[a]naphthalen-9-yl)-piperidin-1-yl]-propionitrile], the IC50 in test [1], in test [2] and in test [3] was 1 to 20 nM throughout.
Take `CNC(=O)C1CCCN(c2ccnc3cnc4[nH]ccc4c23)C1` (stereo not drawn) [Ex. 71, N-methyl-1-(3H-pyrrolo[3,2-f][1,7]naphthyridin-9-yl)piperidine-3-carboxamide]: the IC50 in test [1], in test [2] and in test [3] was > 20 nM in each case.
Consider `N#CCC(=O)N1CCN(c2ccnc3cnc4[nH]ccc4c23)CC1` [Ex. 102, 3-oxo-3-[4-(3H-pyrrolo[3,2-f][1,7]naphthyridin-9-yl)piperazin-1-yl]propanenitrile], for which the concentration for half-maximal inhibition (IC50) in test [1], in test [2] and in test [3] was > 20 nM throughout.
For the molecule `CS(=O)(=O)N1CCC[C@@H](c2ccnc3cnc4[nH]ccc4c23)C1` [Ex. 10B, (S)9-(1-methylsulfonyl-3-piperidyl)-3H-pyrrolo[3,2-f][1,7]naphthyridine], the IC50 in test [1], in test [2] and in test [3] was 1 to 20 nM in each case.
Take `CC(C)CNC(=O)N1CCCC(c2ccnc3cnc4[nH]ccc4c23)C1` (stereo not drawn) [Ex. 49, N-isobutyl-3-(3H-pyrrolo[3,2-f][1,7]naphthyridin-9-yl)piperidine-1-carboxamide]: the IC50 in test [1], in test [2] and in test [3] was > 20 nM throughout.
Turning to `CC(C)/C(=N\C#N)N1CCC[C@H](c2ccnc3cnc4[nH]ccc4c23)C1` [Ex. 43A, (R)(E)-[2-methyl-1-[3-(3H-pyrrolo[3,2-f][1,7]naphthyridin-9-yl)-1-piperidyl]propylidene]cyanamide], the half-inhibitory concentration (IC50) in test [1], in test [2] and in test [3] was > 20 nM throughout.
As to `O=C(CC1CC1)N1CCCC(c2ncnc3cnc4[nH]ccc4c23)C1` (stereo not drawn) [Ex. 25, 2-Cyclopropyl-1-[3-(3H-3,4,6,8-tetraazacyclopenta[a]naphthalen-9-yl)-piperidin-1-yl]-ethanone], the IC50 was 1 to 20 nM in test [1], > 20 nM in test [2] and > 20 nM in test [3].
For `O=C(NCC(F)(F)F)C1CCCN(c2ccnc3cnc4[nH]ccc4c23)C1` (stereo not drawn) [Ex. 83, 1-(3H-pyrrolo[3,2-f][1,7]naphthyridin-9-yl)-N-(2,2,2-trifluoroethyl)piperidine-3-carboxamide], the IC50 in test [1], in test [2] and in test [3] was 1 to 20 nM in each case.
Consider `CCC(=O)N1CCCC(c2ncnc3cnc4[nH]ccc4c23)C1` (stereo not drawn) [Ex. 27, 1-[3-(3H-3,4,6,8-Tetraaza-cyclopenta[a]naphthalen-9-yl)-piperidin-1-yl]-propan-1-one], for which the IC50 in test [1], in test [2] and in test [3] was > 20 nM throughout.
